The values that follow come from US10508077B2 (FORMA Therapeutics, Inc., priority 2015, dated 2019).

In this test the target is T1, Full length human recombinant HDAC8 protein (Homo sapiens, UniProt Q9BY41).
T1 construct: Full length human recombinant HDAC8 protein was expressed in baculoviral system; made in house
T1 sequence (Q9BY41 1-377): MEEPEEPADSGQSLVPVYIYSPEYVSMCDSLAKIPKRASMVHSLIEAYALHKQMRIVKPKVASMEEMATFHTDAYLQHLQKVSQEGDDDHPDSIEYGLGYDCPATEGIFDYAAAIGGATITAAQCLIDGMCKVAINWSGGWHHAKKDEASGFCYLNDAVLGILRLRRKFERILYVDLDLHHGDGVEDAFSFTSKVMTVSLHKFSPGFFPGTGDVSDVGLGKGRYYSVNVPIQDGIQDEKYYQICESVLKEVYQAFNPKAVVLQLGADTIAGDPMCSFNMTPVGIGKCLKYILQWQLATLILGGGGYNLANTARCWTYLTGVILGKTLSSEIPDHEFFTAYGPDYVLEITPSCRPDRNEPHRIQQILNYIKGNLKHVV
As to the kind of experiment: In vitro histone deacetylase assay: enzymatic HDAC8 assay, electrophoretic mobility shift. It is filed as biochemical. Conditions: substrate RHKK(Ac)-NH2, 1 nM enzyme, compounds listed under IC50 range headings. A digest of the protocol: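 Readout was microfluidic mobility-shift separation of deacetylated product from fluorescent RHKK(Ac)-NH2 substrate (2 µM), after reaction with 1 nM recombinant full-length human HDAC8 at 25 °C, pH 7.5, stopped with SDS. Twelve 3-fold-spaced concentrations tested; product/sum ratios normalized to controls and fitted with a 4-parameter model for IC50.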

For the compound `COc1cncc(CN2CCN(c3ccccc3/C=C/C(=O)NO)CC2)c1` [Example I-169, (E)-N-hydroxy-3-(2-(4-((5-methoxypyridin-3-yl)methyl)piperazin-1-yl)phenyl)acrylamide], the concentration for half-maximal inhibition (IC50) (commonly the midpoint of a concentration-inhibition curve) is under 1 µM. Turning to `O=C(/C=C/c1ccccc1N1CCN(Cc2cccc(C(F)(F)F)c2)CC1)NO` [Example I-171, (E)-N-hydroxy-3-(2-(4-(3-(trifluoromethyl)benzyl)piperazin-1-yl)phenyl)acrylamide], the IC50 is under 1 µM.

With `COc1ccc(CN2CCN(c3ccccc3/C=C/C(=O)NO)CC2)cc1` [Example I-172, (E)-N-hydroxy-3-(2-(4-(4-methoxybenzyl)piperazin-1-yl)phenyl)acrylamide], the IC50 was under 1 µM.

Take `O=C(/C=C/c1ccccc1N1CCN(Cc2ccc3c(c2)OC(F)(F)O3)CC1)NO` [Example I-173, (E)-3-(2-(4-((2,2-difluorobenzo[d][1,3]dioxol-5-yl)methyl)piperazin-1-yl)phenyl)-N-hydroxyacrylamide]: the IC50 was under 1 µM. Regarding `O=C(/C=C/c1ccccc1N1CCN(Cc2ccccc2C(F)(F)F)CC1)NO` [Example I-174, (E)-N-hydroxy-3-(2-(4-(2-(trifluoromethyl)benzyl)piperazin-1-yl)phenyl)acrylamide], the IC50 is under 1 µM. As to `O=C(/C=C/c1ccccc1N1CCN(Cc2cc3c(cc2Cl)OCO3)CC1)NO` [Example I-175, (E)-3-(2-(4-((6-chlorobenzo[d][1,3]dioxol-5-yl)methyl)piperazin-1-yl)phenyl)-N-hydroxyacrylamide], the IC50 is under 1 µM. In the case of `O=C(/C=C/c1ccccc1N1CCN(Cc2ccccc2OC(F)F)CC1)NO` [Example I-176, (E)-3-(2-(4-(2-(difluoromethoxy)benzyl)piperazin-1-yl)phenyl)-N-hydroxyacrylamide], the IC50 was under 1 µM. For `CCCCN1CCN(c2ccccc2/C=C/C(=O)NO)CC1` [Example I-177, (E)-3-(2-(4-butylpiperazin-1-yl)phenyl)-N-hydroxyacrylamide], the IC50 was under 1 µM. For the compound `CCCCCCN1CCN(c2ccccc2/C=C/C(=O)NO)CC1` [Example I-178, (E)-3-(2-(4-hexylpiperazin-1-yl)phenyl)-N-hydroxyacrylamide], the IC50 was under 1 µM.

Consider `Cn1ccnc1CN1CCN(c2ccccc2/C=C/C(=O)NO)CC1` [Example I-181, (E)-N-hydroxy-3-(2-(4-((1-methyl-1H-imidazol-2-yl)methyl)piperazin-1-yl)phenyl)acrylamide], for which the IC50 was under 1 µM. Turning to `O=C(/C=C/c1ccccc1N1CCN(CCCC(F)(F)F)CC1)NO` [Example I-184, (E)-N-hydroxy-3-(2-(4-(4,4,4-trifluorobutyl)piperazin-1-yl)phenyl)acrylamide], the IC50 was under 1 µM. Take `Cc1csc(CN2CCN(c3ccccc3/C=C/C(=O)NO)CC2)n1` [Example I-185, (E)-N-hydroxy-3-(2-(4-((4-methylthiazol-2-yl)methyl)piperazin-1-yl)phenyl)acrylamide]: the IC50 was under 1 µM.

With `CN(C)CC1(CN2CCN(c3ccccc3/C=C/C(=O)NO)CC2)CCCC1` [Example I-186, (E)-3-(2-(4-((1-((dimethylamino)methyl)cyclopentyl)methyl)piperazin-1-yl)phenyl)-N-hydroxyacrylamide], the half-maximal inhibitory concentration (IC50) was under 1 µM. With `CN1CCC(C)(CN2CCN(c3ccccc3/C=C/C(=O)NO)CC2)CC1` [Example I-187, (E)-3-(2-(4-((1,4-dimethylpiperidin-4-yl)methyl)piperazin-1-yl)phenyl)-N-hydroxyacrylamide], the IC50 was under 1 µM.

Consider `O=C(/C=C/c1ccccc1N1CCN(Cc2cn3ccccc3n2)CC1)NO` [Example I-188, (E)-N-hydroxy-3-(2-(4-(imidazo[1,2-a]pyridin-2-ylmethyl)piperazin-1-yl)phenyl)acrylamide], for which the IC50 was under 1 µM. On to `O=C(/C=C/c1ccccc1N1CCN(Cc2nc3ccccc3s2)CC1)NO` [Example I-189, (E)-3-(2-(4-(benzo[d]thiazol-2-ylmethyl)piperazin-1-yl)phenyl)-N-hydroxyacrylamide], for which the IC50 was under 1 µM. For the compound `O=C(/C=C/c1ccccc1N1CCC(NCc2nccs2)CC1)NO` [Example I-190, (E)-N-hydroxy-3-(2-(4-((thiazol-2-ylmethyl)amino)piperidin-1-yl)phenyl)acrylamide], the IC50 was under 1 µM. The same measure for `O=C(/C=C/c1ccccc1N1CCC(NCc2ccccc2OC(F)F)CC1)NO` [Example I-191, (E)-3-(2-(4-((2-(difluoromethoxy)benzyl)amino)piperidin-1-yl)phenyl)-N-hydroxyacrylamide]: under 1 µM. The same measure for `O=C(/C=C/c1ccccc1N1CCC(NCc2nc3ccccc3s2)CC1)NO` [Example I-192, (E)-3-(2-(4-((benzo[d]thiazol-2-ylmethyl)amino)piperidin-1-yl)phenyl)-N-hydroxyacrylamide]: under 1 µM; for `CC(=O)N1CCN(c2ccccc2/C=C/C(=O)NO)CC1` [Example I-193, (E)-3-(2-(4-actylpiperazin-1-yl)phenyl)-N-hydroxyacrylamide]: under 1 µM. Turning to `CSCC(=O)N1CCN(c2ccccc2/C=C/C(=O)NO)CC1` [Example I-194, (E)-N-hydroxy-3-(2-(4-(2-(methylthio)acetyl)piper-azin-1-yl)phenyl)acrylamide], the IC50 is under 1 µM. On to `COc1ccc(CC(=O)N2CCN(c3ccccc3/C=C/C(=O)NO)CC2)cc1` [Example I-195, (E)-N-hydroxy-3-(2-(4-(2-(4-methoxyphenyl)acetyl)pi-perazin-1-yl)phenyl)acrylamide], for which the IC50 was under 1 µM. The same measure for `O=C(/C=C/c1ccccc1N1CCN(C(=O)Cc2cccs2)CC1)NO` [Example I-196, (E)-N-hydroxy-3-(2-(4-(2-(thiophen-2-yl)acetyl)piperazin-1-yl)phenyl)acrylamide]: under 1 µM. Regarding `CCSCC(=O)N1CCN(c2ccccc2/C=C/C(=O)NO)CC1` [Example I-197, (E)-3-(2-(4-(2-(ethylthio)acetyl)pipera-zin-1-yl)phenyl)-N-hydroxyacrylamide], the IC50 is under 1 µM.

On to `Cc1cc(C(=O)N2CCN(c3ccccc3/C=C/C(=O)NO)CC2)n[nH]1` [Example I-198, (E)-N-hydroxy-3-(2-(4-(5-methyl-1H-pyrazole-3-carbonyl)piperazin-1-yl)phenyl)acrylamide], for which the IC50 is under 1 µM. For the compound `Cn1cncc1C(=O)N1CCN(c2ccccc2/C=C/C(=O)NO)CC1` [Example I-199, (E)-N-hydroxy-3-(2-(4-(1-methyl-1H-imidazole-5-carbonyl)piperazin-1-yl)phenyl)acrylamide], the IC50 is under 1 µM. On to `CS(=O)(=O)CCCC(=O)N1CCN(c2ccccc2/C=C/C(=O)NO)CC1` [Example I-201, (E)-N-hydroxy-3-(2-(4-(4-(methylsulfonyl)butanoyl)piperazin-1-yl)phenyl)acrylamide], for which the IC50 is under 1 µM. As for `O=C(/C=C/c1ccccc1N1CCN(C(=O)c2ccc(F)cn2)CC1)NO` [Example I-202, (E)-3-(2-(4-(5-fluoropicolinoyl)piperazin-1-yl)phenyl)-N-hydroxyacrylamide], the 50% inhibitory concentration (IC50) is under 1 µM. As to `COc1cc(CC(=O)N2CCN(c3ccccc3/C=C/C(=O)NO)CC2)ccc1O` [Example I-203, (E)-N-hydroxy-3-(2-(4-(2-(4-hydroxy-3-methoxyphenyl)acetyl)piperazin-1-yl)phenyl)acrylamide], the 50% inhibitory concentration (IC50) is under 1 µM. Turning to `O=C(/C=C/c1ccccc1N1CCN(C(=O)C2CC(F)(F)C2)CC1)NO` [Example I-205, (E)-3-(2-(4-(3,3-difluorocyclobutane-1-carbonyl)piperazin-1-yl)phenyl)-N-hydroxyacrylamide], the half-inhibitory concentration (IC50) is under 1 µM. Take `O=C(/C=C/c1ccccc1N1CCN(C(=O)c2ccc3c(c2)OCO3)CC1)NO` [Example I-207, (E)-3-(2-(4-(benzo[d][1,3]dioxole-5-carbonyl)piperazin-1-yl)phenyl)-N-hydroxyacrylamide]: the IC50 is under 1 µM. As to `CN1CCCC(C(=O)N2CCN(c3ccccc3/C=C/C(=O)NO)CC2)C1` (stereo not shown) [Example I-209, (E)-N-hydroxy-3-(2-(4-(1-methylpiperidine-3-carbonyl)piperazin-1-yl)phenyl)acrylamide], the IC50 was under 1 µM.

Take `O=C(/C=C/c1ccccc1N1CCN(C(=O)Cc2ccc(Cl)cc2)CC1)NO` [Example I-210, (E)-3-(2-(4-(2-(4-chlorophenyl)acetyl)piper-azin-1-yl)phenyl)-N-hydroxyacrylamide]: the 50% inhibitory concentration (IC50) was under 1 µM. Take `Cc1nc(CC(=O)N2CCN(c3ccccc3/C=C/C(=O)NO)CC2)c(C)s1` [Example I-211]: the IC50 was under 1 µM. The same measure for `O=C(/C=C/c1ccccc1N1CCN(C(=O)c2ccc(OC(F)F)cc2)CC1)NO` [Example I-212, (E)-3-(2-(4-(4-(difluoromethoxy)benzoyl)piperazin-1-yl)phenyl)-N-hydroxyacrylamide]: under 1 µM; for `COc1ccc(C(=O)N2CCN(c3ccccc3/C=C/C(=O)NO)CC2)cc1F` [Example I-213]: under 1 µM; for `Cc1oc(-c2ccc(Cl)cc2)cc1C(=O)N1CCN(c2ccccc2/C=C/C(=O)NO)CC1` [Example I-214, (E)-3-(2-(4-(5-(4-chlorophenyl)-2-methylfuran-3-carbonyl)piperazin-1-yl)phenyl)-N-hydroxyacrylamide]: under 1 µM.
